{"source": "patent US9416181B2", "about": "“Compositions for cell culture and methods of using the same” (AbbVie Inc., priority 2013, dated 2016)", "format_in_all_cases": "cell-based, Chinese Hamster", "key": {"[1]": {"test_system": "Cell Line 2 (CHO) expressing Antibody 2", "assay": "Acidic species variants (WCX-10) of Antibody 2, Cell Line 2 lab-scale bioreactor culture", "conditions": "0.1 g/L", "method": "(§1) Four different recombinant Chinese Hamster Ovary (CHO) cell lines expressing four different recombinant glycoproteins were evaluated in either shaker flask culture, or 3 L laboratory scale bioreactors. Cell Line 1 was genetically engineered to express Antibody 1, Cell Line 2 was genetically engineered to express Antibody 2, Cell Line 3 was genetically engineered to express dual variable domain immunoglobulin 1 (DVD1) and Cell Line 4 was genetically engineered to express dual variable domain immunoglobulin 2 (DVD2).\nCharge Heterogeneity via Weak Cation Exchange Chromatography-Samples were analyzed using an HPLC system equipped with a ProPac WCX-10 analytical column (Thermo Scientific, Sunnyvale, Calif.). Approximately 100 μg of sample was loaded in 6% Buffer B (10 mM sodium phosphate, 500 mM NaCl, pH 5.5) and 94% Buffer A (10 mM sodium phosphate, pH 7.5). The column was run at a flow rate of 1.0 mL/min. The protein was eluted from the column by increasing the buffer B composition from 6% to 16% over 20 minutes. The protein peaks were measured using UV absorbance at 280 nm as the peaks eluted from the column. The column was regenerated using 100% buffer B followed be a re-equilibration period using initial condition before the injection of the next sample. […]"}, "[2]": {"test_system": "Cell Line 1 (CHO) expressing Antibody 1", "assay": "Aggregate content (SEC) of Antibody 1, Cell Line 1 shake flask fed-batch culture", "conditions": "shaker", "method": "A recombinant Chinese Hamster Ovary (CHO) cell line (Cell Line 1) expressing a humanized monoclonal antibody (Antibody 1) was evaluated in 2 different cultures vessels (shaker flasks and 3 L laboratory-scale bioreactors). The cell line was of CHO DUX-B11 origin based on a DHFR (dihydrofolate reductase) expression system and cultured in a chemically defined basal media, and fed periodically with a chemically-defined feed media (CDFM). The media utilized throughout all of the experiments were chemically-defined, and both animal-component free, and protein-free. Each of the respective media were supplemented as needed with selected bioflavonoids to evaluate for their potential impact on the resulting acidic species profile. In preparation of the cultures, the cell lines were serially expanded through separate seed train inoculums to generate enough cells for inoculation. Process conditions utilized during the cultures were slightly different depending on the culture scale, but similar within each scale to the respective non-bioflavonoid supplemented control conditions. All bioflavonoids utilized were purchased from Sigma-Aldrich (St. Louis, Mo.).\nProtein A purified antibody samples from Cell Line 1 were diluted when necessary to 0.5-5 mg/mL in 1×PBS, and measured on a TSKgel G3000SWXL column (Tosoh Bioscience, South San Francisco, Calif.) using an isocratic gradient on an HPLC system with detection at 280 nm. High molecular weight (HMW), monomer, and low molecular weight (LMW) species were assigned and subsequently quantitated based on the chromatographic profile.\nIn this Example, EGCG was added into the feed (cell culture medium) at the concentration range of 5 mg/L (low), 20 mg/L (mid) and 50 mg/L (high) in a shaker experiment to determine the impact of EGCG on product quality of a humanized monoclonal antibody (Antibody 1). Detailed cell culture conditions are as described in Table 1."}, "[3]": {"test_system": "recombinant CHO cell lines", "assay": "Harvest titer / productivity summary across bioflavonoid supplemented cultures", "method": "as §1\nProtein A Affinity Chromatography-Antibody titers were measured from crude cell culture harvests on a Poros ATM (Life Technologies, Carlsbad, Calif.) affinity column using an HPLC system operating with a low pH, step elution gradient with detection at 280 nm. Absolute concentrations were assigned with respect to reference standard calibration curves."}, "[4]": {"test_system": "Cell Line 2 (CHO) expressing Antibody 2", "assay": "Acidic species variants (WCX-10) of Antibody 2, Cell Line 2 shake flask culture", "conditions": "0.05 and 0.1 g/L; shaker", "method": "as §1\nCharge Heterogeneity via Weak Cation Exchange Chromatography-Samples were analyzed using an HPLC system equipped with a ProPac WCX-10 analytical column (Thermo Scientific, Sunnyvale, Calif.). Approximately 100 μg of sample was loaded in 6% Buffer B (10 mM sodium phosphate, 500 mM NaCl, pH 5.5) and 94% Buffer A (10 mM sodium phosphate, pH 7.5). The column was run at a flow rate of 1.0 mL/min. […] The protein peaks were measured using UV absorbance at 280 nm as the peaks eluted from the column. […]\nTo further evaluate the impact of EGCG on acidic region variants, Antibody 2 and dual variable domain immunoglobulin 1 (DVD1) were examined. Antibody 2 was evaluated in a set of shaker and lab-scale bioreactor experiments with two feed amounts (100% and 50%) as unsupplemented control conditions. […]"}}, "data": [{"compound": "O=C(O[C@@H]1Cc2c(O)cc(O)cc2O[C@@H]1c1cc(O)c(O)c(O)c1)c1cc(O)c(O)c(O)c1", "note": "[EGCG, epigallocatechin gallate]", "values": [{"measurement": "relative reduction of total acidic variants content vs unsupplemented control", "setting": "[1]", "result": "29%-36%"}, {"measurement": "reduction of aggregation content, relative value", "setting": "[2]; 5 mg/L in feed", "result": 9, "unit": "%"}, {"measurement": "reduction of aggregation content, relative value", "setting": "[2]; 20 mg/L in feed", "result": 23, "unit": "%"}, {"measurement": "reduction of aggregation content, relative value", "setting": "[2]; 50 mg/L in feed", "result": 44, "unit": "%"}, {"measurement": "drop in harvest titer", "setting": "[3]; concentrations up to 0.1 g/L, supplemented cultures overall", "result": "at most 8%"}, {"measurement": "recombinant protein productivity", "setting": "[3]; supplementation up to 0.2 g/L", "result": "only nominally impacted"}, {"measurement": "relative reduction of total acidic species content vs unsupplemented control", "setting": "[4]", "result": "21%-45%"}]}]}
